For assay [1], the system named is HL60-I cells. Briefly: metabolic complementation assay: lectin staining (VVA, LFA, TLM) of analogue-treated cells by flow cytometry. The following applies: 5 mM, 24 h; for effect on VVA binding: decrease = masking of GalNAc by sialic acid. The class given is cell-based, human. How it is done: Medium supplementation with some synthetic sialic acid analogues restores cell surface sialylation in hyposialylated HL60-I cells. Cells were cultivated in the presence of indicated synthetic sialic acid analogue (5 mM) for 24 h and stained with either directly fluorochrome-coupled lectins (VVA, LFA) or biotin-coupled lectin (TLM) and streptavidin-FITC and analyzed by flow cytometry. Values are given as “relative factor of change” (RFC) of the “mean fluorescence intensity” (MFI) of sialic acid-treated cells relative to untreated cells. The bars represent arithmetic means±SD (n^34) of one (x) or ≧two experiments.
To test whether cells can incorporate synthetic sialic acid analogues from the culture medium, a metabolic complementation assay was performed on endogenously hyposialylated, UDP-GlcNAc-2-epimerase-deficient HL60-I cells.
Cells were cultivated for 24 h in the presence of one of 16 different synthetic sialic acid analogues, carrying distinct C5 or C9 modifications (FIG. 1), and subsequently, changes in cell surface sialylation were assessed by flow cytometry using three fluorochrome-conjugated sialic acid-sensitive lectins. Vicia villosa agglutinin (VVA) detects GalNAc residues, and its binding sites can be masked by the addition of terminal sialic acid residues.
In sugar supplementation assays, cells seeded at 5×10^5 cells/ml in culture medium buffered with 40 mM HEPES (pH 7.2) were cultivated for 24 h in the presence or absence of 5 mM sialic acids (stocks of 100 mM dissolved in H2O, stored at 4° C.).
(§1) Lyophilized FITC-conjugated lectins Vicia villosa (VVA) was obtained from Sigma, dissolved in H2O (1 mg/ml), aliquoted and stored at −20° C. according to the manufacturer's instructions. FITC-conjugated Limax flavus agglutinin (LFA) was from EY Laboratories (San Manteo, Calif., USA) and biotin-coupled Tritrichomonas mobilensis agglutinin (TLM) from Calbiochem. Lectin staining procedure and fluorescence-activated cell scanning on a Becton Dickinson FACScan cytometer using Cellquest II software were carried out as described (Keppler, O. T., Molden-hauer, G., Oppenländer, M., Schwartz-Albiez, R., Berger, E. G., Funderud, S., and Pawlita, M. (1992) Eur J Immunol 22(11), 2777-81). Briefly, cells (3×10^5) were washed twice in cold PBS and then incubated in 100 μl PBS/0.05% NaN3, containing either fluorochrome-conjugated lectins VVA (50 μg/ml), LFA (20 μg/ml), or biotinylated TLM (20 μg/ml) for 45 min on ice in the dark. For biotinylated TLM a secondary incubation step with steptavidin-FITC (20 μg/ml) (Sigma) for 30 min on ice in the dark is required. After washing with PBS, cells were resuspended in 300 μl PBS and analyzed by flow cytometry.
(In flow cytometry, cells or beads pass a laser one at a time.)

Assay [2] deals with B-lymphotropic papovavirus (LPV) in BJA-B K88 cells. Description: LPV infection of analogue-treated normally sialylated cells (VP1 ELISA). The format is cell-based, human. How it is done: (§2) Changes in permissivity for the sialic acid-dependent B-lymphotropic papovavirus (LPV) in hyposialylated (K20) and normally sialylated (K88) BJA-B cells after treatment with sialic acid analogues. Cells were treated with analogues or NeuAc for 3d. 50 h post LPV inoculation the LPV infection was quantified (A) by detecting the amount of LPV VP1 in cell lysates relative to the total protein content by ELISA and (B) by indirect immunofluorescence microscopy as percentage of LPV T-antigen-positive BJA-B K20 cells. A, values are given as arithmetic means±SD of three independent experiments. B, representatives of three experiments are shown. DAPI-staining (left) indicates the total amount of cells in the section, on the right LPV T-antigen positive cells are shown with the average percentage given beside. […]
(§3) BJA-B subclones were infected with the B-lymphotropic papovavirus (LPV) as described (Keppler, O. T., Herrmann, M., Oppenländer, M., Meschede, W., and Pawlita, M. (1994) J Virol 68(11), 6933-9). […] LPV infection was quantified by indirect immunofluorescence microscopy as percentage of LPV T-antigen positive cells and the amount of LPV VP1 in cell lysates was determined by ELISA relative to the total protein extracted.
Background: ELISA stands for enzyme-linked immunosorbent assay.

Assay [3] has as its system HL60-I cells. Description: uptake of peracetylated/esterified NeuAc: VVA and TML lectin staining by flow cytometry. The class given is cell-based, human. Conditions: HL60-I cells, 0.03 to 1 mM (NeuAc 1 or 5 mM), 72 h, 0.5% DMSO. How it is done: Peracetylation of NeuAc only facilitates uptake if the carboxyl group is additionally esterified. Hyposialylated HL60-I cells were cultivated in the presence of indicated synthetic sialic acid analogue (stock solution 200 mM in DMSO) ranging from 0.03 to 1 mM or 0, 1 or 5 mM NeuA for 72 h with DMSO concentrations adjusted to 0.5%. Cells were stained with either directly fluorochrome-coupled lectin VVA, or biotin-coupled lectin (TML) and streptavidin-FITC for analysis by flow cytometry. Values given are relative factors of change of the mean fluorescence intensity of pretreated cells relative to untreated cells. The bars represent arithmetic means±SD (n=3). Molecular structures are given below the diagram.
Sugars are very hydrophilic and it has been shown that increasing the hydrophobicity by peracetylation of hydroxyl groups enables or facilitates uptake of disaccharides (Collins, B. E., Fralich, T. J., Itonori, S., Ichikawa, Y. and Schnaar, R. L. (2000) Glycobiology, 10, 11-20; Sarkar, A. K., Fritz, T. A., Taylor, W. H. and Esko, J. D. (1995) Proc Natl Acad Sci USA, 92, 3323-7; Sarkar, A. K., Rostand, K. S., Jain, R. K., Matta, K. L. and Esko, J. D. (1997) J Biol Chem, 272, 25608-16). For ManNAc derivatives it has been shown that peracetylation reduces required medium concentrations (Collins et al., 2000). The acetyl groups are cleaved-off intracellularly by cellular esterases (Collins et al., 2000; Sarkar et al., 1995; Sarkar et al., 1997) and the derivatives are then processed as known for the non-acetylated sugars. In order to address the question whether peracetylation also facilitates uptake of N-acetylneuraminic acid, HL60-I cells were cultivated in the presence of peracetylated NeuAc at concentrations ranging from 0.03 mM to 1 mM for 3 days. Changes in cell surface sialylation were measured by flow cytometry using Vicia Villosa agglutinin (VVA) and Tritrichomonas mobilensis lectin (TML). […] This represents a reduction in concentration by more than 16-fold and is in a similar range as reported for peracetylated ManNAc and ManNAc (Collins et al., 2000).
as §1

For assay [4], the system named is B-lymphotropic papovavirus (LPV) in BJA-B K20 cells. The following applies: NeuAc treatment, stated as known; cited from earlier work.
For assay [5] the test system is unchanged. Description: LPV infection of analogue-treated hyposialylated cells (VP1 ELISA, T-antigen immunofluorescence). Conditions: BJA-B K20 cells (statement also covers K88 cells). The format is cell-based, human. How it is done: as §2, §3

In the case of `CC(=O)N[C@H]1[C@H]([C@H](O)[C@H](O)CO)OC(O)(C(=O)O)C[C@@H]1O` (stereo partly shown) [NeuAc, N-acetyl neuraminic acid, reference compound], in the assay on HL60-I cells [1], the “increase of LFA binding (relative factor of change of mean fluorescence intensity vs untreated cells)” value is 9.5 fold, the “increase of TLM binding (relative factor of change of mean fluorescence intensity vs untreated cells)” value was determined as 4.8 fold and the “effect on VVA binding” value was “decreased markedly”. For the same compound, the LPV-permissivity entry in assay [2] is given as “did not change permissivity significantly”. Moreover, the “effect on cell surface sialylation (VVA and TML binding)” value with HL60-I cells [3] is on record as “significant changes in lectin binding”. Besides, the “cells infected by LPV” value in assay [4] is on record as “about 17%”.
For `CC(=O)N[C@H]1[C@H]([C@H](O)[C@@H](C)O)OC(O)(C(=O)O)C[C@@H]1O` (stereo partly shown) [analogue a, 5-N-acetyl-9-deoxy-neuraminic acid], in the assay on HL60-I cells [1], the “effect on LFA binding” value is “increased binding of LFA”, the “effect on TLM binding” value was “increased binding” and the “effect on VVA binding” value is recorded as “significantly decreased VVA-binding”. The LPV-permissivity result in assay [5] was “to a lesser extent”.

The record behind these values is patent US20050042714A1, “Glycoconjugates of sialic acid derivates, methods for their production and use thereof” (priority 2001, published 2005).
